Where a name gives a salt, the structure may show the parent alone.
melting point [°C] | Structure (SMILES)
270 | CCn1c(N)c(C(=O)NC)c(=O)c2ccc(-c3ccc(CC(=O)NCc4cncn4C)cc3)nc21 (as salt: HCl) [compound 36, 2-amino-1-ethyl-N-methyl-7-[4-(2-{[(1-methyl-1H-imidazol-5-yl)methyl]amino}-2-oxoethyl)phenyl]-4-oxo-1,4-dihydro-1,8-naphthyridine-3-carboxamide]
266 | CCN1CC(F)(F)C[C@H]1CNC(=O)Cc1ccc(-c2ccc3c(=O)c(C(=O)NC)c(N)n(CC)c3n2)cc1 (as salt: HCl) [compound 24, 2-amino-1-ethyl-7-{4-[2-({[(2S)-1-ethyl-4,4-difluoropyrrolidin-2-yl]methyl}-amino)-2-oxoethyl]phenyl}-N-methyl-4-oxo-1,4-dihydro-1,8-naphthyridine-3-carboxamide]
176 | CCn1c(N)c(C(=O)NC)c(=O)c2ccc(-c3cccc(CC(=O)Nc4ccccn4)c3)nc21 (as salt: HCl) [compound 63, 2-amino-1-ethyl-N-methyl-4-oxo-7-{3-[2-oxo-2-(pyrid-2-ylamino)ethyl]-phenyl}-1,4-dihydro-1,8-naphthyridine-3-carboxamide]
228 | CCN1CCCC1CNC(=O)Cc1ccc(-c2ccc3c(=O)c(C(=O)NC)c(N)n(CC)c3n2)cc1Cl (centres unmarked) (as salt: HCl) [compound 57, 2-amino-7-[3-chloro-4-(2-{[(1-ethylpyrrolidin-2-yl)methyl]amino}-2-oxoethyl)phenyl]-1-ethyl-N-methyl-4-oxo-1,4-dihydro-1,8-naphthyridine-3-carboxamide]
270 | CCn1c(N)c(C(=O)NC)c(=O)c2ccc(-c3ccc(CC(=O)Nc4cccnc4)cc3)nc21 (as salt: HCl) [compound 3, 2-amino-1-ethyl-N-methyl-4-oxo-7-{4-[2-oxo-2-(pyrid-3-ylamino)ethyl]-phenyl}-1,4-dihydro-1,8-naphthyridine-3-carboxamide]
188 | CCn1c(N)c(C(=O)NC)c(=O)c2ccc(-c3ccc(C(C)C(=O)Nc4ccccn4)cc3)nc21 (centres unmarked) (as salt: HCl) [compound 20, 2-amino-1-ethyl-N-methyl-7-{4-[1-methyl-2-oxo-2-(pyrid-2-ylamino)ethyl]-phenyl}-4-oxo-1,4-dihydro-1,8-naphthyridine-3-carboxamide]
258 | CCn1c(N)c(C(=O)NC)c(=O)c2ccc(-c3ccc(CC(=O)Nc4ccccn4)cc3)nc21 (as salt: HCl) [compound 4, 2-amino-1-ethyl-N-methyl-4-oxo-7-{4-[2-oxo-2-(pyrid-2-ylamino)ethyl]-phenyl}-1,4-dihydro-1,8-naphthyridine-3-carboxamide]
138 | CCN1CCCC1CN(C)C(=O)Cc1ccc(-c2ccc3c(=O)c(C(=O)NC)c(N)n(CC)c3n2)cc1 (centres unmarked)
170 | CCN1C[C@H](F)C[C@H]1CNC(=O)Cc1ccc(-c2ccc3c(=O)c(C(=O)NC)c(N)n(CC)c3n2)cc1 (as salt: HCl) [compound 26, 2-amino-1-ethyl-7-{4-[2-({[(2S,4R)-1-ethyl-4-fluoropyrrolidin-2-yl]methyl}-amino)-2-oxoethyl]phenyl}-N-methyl-4-oxo-1,4-dihydro-1,8-naphthyridine-3-carboxamide]
> 260 | CCn1c(N)c(C(=O)NC)c(=O)c2ccc(-c3ccc(CC(=O)NC[C@H]4CCCN4S(C)(=O)=O)cc3)nc21 [compound 28, 2-amino-1-ethyl-N-methyl-7-{4-[2-({[(2R)-1-(methylsulfonyl)pyrrolidin-2-yl]methyl}amino)-2-oxoethyl]phenyl}-4-oxo-1,4-dihydro-1,8-naphthyridine-3-carboxamide]
277 | CCN1CCCC1CNC(=O)Cc1ccc(-c2ccc3c(=O)c(C(=O)NC)c(N)n(CC)c3n2)cc1C (centres unmarked) [compound 59, 2-amino-7-[3-methyl-4-(2-{[(1-ethylpyrrolidin-2-yl)methyl]amino}-2-oxoethyl)phenyl]-1-ethyl-N-methyl-4-oxo-1,4-dihydro-1,8-naphthyridine-3-carboxamide]
199 | CCN1CCOCC1CNC(=O)Cc1ccc(-c2ccc3c(=O)c(C(=O)NC)c(N)n(CC)c3n2)cn1 (centres unmarked) (as salt: HCl) [compound 23, 2-amino-1-ethyl-7-[6-(2-{[(4-ethylmorpholin-3-yl)methyl]amino}-2-oxoethyl)pyrid-3-yl]-N-methyl-4-oxo-1,4-dihydro-1,8-naphthyridine-3-carboxamide]
250 | CCn1c(N)c(C(=O)NC)c(=O)c2ccc(-c3ccc(CC(=O)NCC4COCCN4C4CC4)cc3)nc21 (centres unmarked) (as salt: HCl) [compound 33, 2-amino-7-[4-(2-{[(4-cyclopropylmorpholin-3-yl)methyl]amino}-2-oxoethyl)phenyl]-1-ethyl-N-methyl-4-oxo-1,4-dihydro-1,8-naphthyridine-3-carboxamide]
268 | CCn1c(N)c(C(=O)NC)c(=O)c2ccc(-c3ccc(CC(=O)NCc4ccccn4)cc3)nc21 (as salt: HCl) [compound 8, 2-amino-1-ethyl-N-methyl-4-oxo-7-(4-{2-oxo-2-[(pyrid-2-ylmethyl)amino]-ethyl}phenyl)-1,4-dihydro-1,8-naphthyridine-3-carboxamide]
270 | CCn1c(N)c(C(=O)NC)c(=O)c2ccc(-c3ccc(CC(=O)NCCc4ccccc4)cc3)nc21
178 | CCN1CCCC1CNC(=O)Cc1ccc(-c2ccc3c(=O)c(C(=O)NC)c(N)n(CC)c3n2)c(C)c1 (centres unmarked) [compound 61, 2-amino-1-ethyl-7-[4-(2-{[(1-ethylpyrrolidin-2-yl)methyl]amino}-2-oxoethyl)-2-methylphenyl]-N-methyl-4-oxo-1,4-dihydro-1,8-naphthyridine-3-carboxamide]
> 260 | CCn1c(N)c(C(=O)NC)c(=O)c2ccc(-c3ccc(CC(=O)NC[C@H]4CCCN4CC(F)(F)F)cc3)nc21 [compound 30, 2-amino-1-ethyl-N-methyl-4-oxo-7-{4-[2-oxo-2-({[(2R)-1-(2,2,2-trifluoroethyl)pyrrolidin-2-yl]methyl}amino)ethyl]phenyl}-1,4-dihydro-1,8-naphthyridine-3-carboxamide]
230 | CCn1c(N)c(C(=O)NC)c(=O)c2ccc(-c3ccc(CC(=O)NCc4ccncc4)cc3)nc21 (as salt: HCl) [compound 7, 2-amino-1-ethyl-N-methyl-4-oxo-7-(4-{2-oxo-2-[(pyrid-4-ylmethyl)amino]-ethyl}phenyl)-1,4-dihydro-1,8-naphthyridine-3-carboxamide]
262 | CCn1c(N)c(C(=O)NC)c(=O)c2ccc(-c3ccc(CC(=O)NCCOC)cc3)nc21 [compound 9, 2-amino-1-ethyl-7-(4-{2-[(2-methoxyethyl)amino]-2-oxoethyl}phenyl)-N-methyl-4-oxo-1,4-dihydro-1,8-naphthyridine-3-carboxamide]

Structure (SMILES) | melting point [°C]
CCn1c(N)c(C(=O)NC)c(=O)c2ccc(-c3ccc(CC(=O)Nc4ccccn4)cn3)nc21 (as salt: HCl) [compound 19, 2-amino-1-ethyl-N-methyl-4-oxo-7-{5-[2-oxo-2-(pyrid-2-ylamino)-ethyl]pyrid-2-yl}-1,4-dihydro-1,8-naphthyridine-3-carboxamide] | 268 to 288
